US20230174548A1, “SYMBIOTIC PRODRUGS FOR THE TREATMENT OF CANCER AND OTHER DISEASES” (BOARD OF REGENTS OF THE UNIVERSITY OF NEBRASKA, priority 2020, published 2023)

Legend:
[1] = test system: FTE282E1, OVSAHO, HPNE, MiaPaCa2 and S2013 cell lines; experiment: growth inhibition assays in a panel of five cell lines; details: for potency rank among inhibitors treated as single agents: irrespective of the cell line
[2] = molecular target: T1, IKKβ (Homo sapiens, UniProt O14920); experiment: target engagement in A2780 cells (click chemistry pull-down, Western blot); format: cell-based; details: 48 h
T1 construct: endogenous in cells; host or cells: A2780
T1 sequence (O14920 whole entry): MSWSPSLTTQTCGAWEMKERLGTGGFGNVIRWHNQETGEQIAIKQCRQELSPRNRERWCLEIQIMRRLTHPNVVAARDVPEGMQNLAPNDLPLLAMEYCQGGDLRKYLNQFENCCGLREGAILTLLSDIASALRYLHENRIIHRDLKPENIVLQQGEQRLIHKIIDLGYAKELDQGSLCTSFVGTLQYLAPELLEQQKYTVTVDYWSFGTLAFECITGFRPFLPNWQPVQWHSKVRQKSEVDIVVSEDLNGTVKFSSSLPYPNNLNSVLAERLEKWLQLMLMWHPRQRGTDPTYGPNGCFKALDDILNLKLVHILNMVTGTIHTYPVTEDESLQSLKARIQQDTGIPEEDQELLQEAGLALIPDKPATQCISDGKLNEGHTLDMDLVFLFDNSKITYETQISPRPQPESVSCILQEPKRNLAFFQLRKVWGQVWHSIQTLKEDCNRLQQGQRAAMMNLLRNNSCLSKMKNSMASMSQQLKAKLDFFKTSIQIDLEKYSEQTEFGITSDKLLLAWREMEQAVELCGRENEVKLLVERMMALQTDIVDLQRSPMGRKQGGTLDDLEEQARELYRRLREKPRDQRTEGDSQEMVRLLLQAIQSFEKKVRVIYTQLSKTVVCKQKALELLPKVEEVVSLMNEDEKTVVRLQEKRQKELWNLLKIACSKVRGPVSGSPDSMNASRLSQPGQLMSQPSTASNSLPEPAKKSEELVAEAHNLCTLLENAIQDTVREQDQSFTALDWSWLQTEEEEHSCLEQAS
Procedure: (§1) Briefly, the cells were incubated with 10 μM of compound 4 for […]. In cells, compound 4 is converted to compound 3 with an active methylene group which reacts with surface-exposed cysteine residues on proteins. The lysate was treated with click reagents (TCEP, TBTA and CuSO4) and azido-biotin. Biotin-tagged-3-bound proteins were subjected to monoavidin column. Biotin-tagged proteins were captured, the column was washed to removed untagged proteins and the biotin-tagged-3-bound proteins were eluted with regeneration buffer (6M urea/PBS). The eluted lysates were subjected to Western blot analyses and probed for proteins (IKKβ, RELA, IκBα and IKKγ) in the IKK complex.
(§2) To determine target engagement in cells, cancer cells (A2780) were treated with the compound 4, which is an alkyne-tagged analog of prodrug compound 19-AP1 for 48 h (FIG. 2B). Cells were then harvested, washed and pelleted. Unbound compound 4 was removed by extensively washing the cell pellet. The cell pellets were lysed, and 2 mg/mL of lysates were subjected to click chemistry with TAMRA-Biotin-Azide trifunctional probe (10 mM stock, 20 μL, click chemistry tools), and other click reagents (TCEP, 100 mM stock, 20 μL; TBTA 13.5 mM stock, 20 μL and CuSO4 100 mM stock, 10 μL) to make total volume of 1 mL. The reaction was incubated for 3 h at RT. The lysates were incubated with monomeric avidin beads for additional 1 h. […]

[3] = molecular target: T2, RELA (Homo sapiens, UniProt Q04206); experiment: as above; format: cell-based; details: 48 h
T2 construct: endogenous in cells; host or cells: A2780
T2 sequence (Q04206 whole entry): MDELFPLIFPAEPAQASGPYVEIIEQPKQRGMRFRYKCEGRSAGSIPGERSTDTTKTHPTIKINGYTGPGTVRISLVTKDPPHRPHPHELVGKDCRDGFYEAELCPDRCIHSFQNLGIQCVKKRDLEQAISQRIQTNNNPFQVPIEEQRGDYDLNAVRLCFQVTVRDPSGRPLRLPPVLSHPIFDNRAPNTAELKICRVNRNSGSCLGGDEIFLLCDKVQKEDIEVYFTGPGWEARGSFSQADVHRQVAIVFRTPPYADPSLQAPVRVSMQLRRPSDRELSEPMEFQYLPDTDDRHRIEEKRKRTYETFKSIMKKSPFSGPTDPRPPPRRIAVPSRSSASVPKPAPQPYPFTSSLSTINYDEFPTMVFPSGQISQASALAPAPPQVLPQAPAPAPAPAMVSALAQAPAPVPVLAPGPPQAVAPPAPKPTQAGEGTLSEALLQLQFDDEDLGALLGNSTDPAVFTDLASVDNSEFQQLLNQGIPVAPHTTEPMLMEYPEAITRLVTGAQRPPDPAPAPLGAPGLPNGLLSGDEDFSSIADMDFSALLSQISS
Procedure: as §1, §2

[4] = molecular target: CDK4 (Homo sapiens, UniProt P11802); experiment: cell-free CDK inhibitor assay; format: biochemical; details: for fold less potent than palbociclib: CDK4; for IC50: CDK4, cell-free
Chain of CDK4 (P11802 whole entry): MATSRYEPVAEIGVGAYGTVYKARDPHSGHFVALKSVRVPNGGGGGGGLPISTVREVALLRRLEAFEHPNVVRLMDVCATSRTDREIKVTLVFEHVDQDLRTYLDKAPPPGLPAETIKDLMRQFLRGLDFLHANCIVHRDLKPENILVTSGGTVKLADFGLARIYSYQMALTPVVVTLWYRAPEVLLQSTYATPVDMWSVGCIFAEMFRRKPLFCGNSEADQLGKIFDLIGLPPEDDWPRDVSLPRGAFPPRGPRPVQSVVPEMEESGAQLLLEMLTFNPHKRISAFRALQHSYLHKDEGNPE
Chain of CDK4 (P24385 whole entry partner): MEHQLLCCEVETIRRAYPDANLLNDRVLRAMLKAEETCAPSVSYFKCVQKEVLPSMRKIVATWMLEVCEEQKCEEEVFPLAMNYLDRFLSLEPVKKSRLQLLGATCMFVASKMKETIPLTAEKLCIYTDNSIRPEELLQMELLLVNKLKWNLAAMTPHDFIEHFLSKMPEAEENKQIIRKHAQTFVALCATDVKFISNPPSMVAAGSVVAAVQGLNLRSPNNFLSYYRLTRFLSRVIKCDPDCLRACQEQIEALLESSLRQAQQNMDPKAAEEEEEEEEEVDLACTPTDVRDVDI

[5] = molecular target: CDK6 (Homo sapiens, UniProt Q00534); experiment: cell-free CDK inhibitor assay; format: biochemical; details: for fold less potent than palbociclib: CDK6; for IC50: CDK6, cell-free
Chain of CDK6 (Q00534 whole entry): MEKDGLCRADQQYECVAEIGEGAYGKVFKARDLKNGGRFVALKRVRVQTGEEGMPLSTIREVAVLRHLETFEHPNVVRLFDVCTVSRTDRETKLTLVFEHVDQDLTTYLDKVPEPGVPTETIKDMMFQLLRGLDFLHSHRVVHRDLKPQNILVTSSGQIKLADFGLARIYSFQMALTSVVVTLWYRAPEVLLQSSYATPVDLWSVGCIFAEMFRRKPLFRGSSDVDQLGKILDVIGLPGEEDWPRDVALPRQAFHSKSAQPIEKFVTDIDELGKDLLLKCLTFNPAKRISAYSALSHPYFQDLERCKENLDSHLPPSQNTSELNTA
Chain of CDK6 (P30281 whole entry partner): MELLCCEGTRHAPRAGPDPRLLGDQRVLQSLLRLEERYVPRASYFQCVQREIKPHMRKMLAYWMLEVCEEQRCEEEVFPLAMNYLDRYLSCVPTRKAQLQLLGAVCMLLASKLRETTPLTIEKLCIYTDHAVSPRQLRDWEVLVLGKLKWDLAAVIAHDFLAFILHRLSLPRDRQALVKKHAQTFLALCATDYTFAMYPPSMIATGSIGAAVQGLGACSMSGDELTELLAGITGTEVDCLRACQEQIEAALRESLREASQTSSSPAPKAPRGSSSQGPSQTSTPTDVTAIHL

[6] = test system: FT282E1 immortalized fallopian tube epithelial cell line; experiment: growth inhibition, synergy studies; format: cell-based; details: for IC50: Epithelial cell, FT282E1, read-out: IC50 (Mean ± SD)
[7] = test system: FT282C11 immortalized fallopian tube epithelial cell line; experiment: growth inhibition, synergy studies; format: cell-based; details: read-out: IC50 (Mean ± SD)
[8] = test system: CaOV3 ovarian cancer cell line; experiment: growth inhibition, synergy studies; format: cell-based; details: Homo sapiens, Caov-3, read-out: IC50 (Mean ± SD)
[9] = test system: OVCAR5 ovarian cancer cell line; experiment: growth inhibition, synergy studies; format: cell-based; details: Homo sapiens, OVCAR-5, read-out: IC50 (Mean ± SD)
[10] = test system: OVCAR8 ovarian cancer cell line; experiment: growth inhibition, synergy studies; format: cell-based; details: Homo sapiens, OVCAR-8, read-out: IC50 (Mean ± SD)
[11] = test system: A2780 ovarian cancer cell line; experiment: growth inhibition, synergy studies; format: cell-based; details: Homo sapiens, read-out: IC50 (Mean ± SD)
[12] = test system: Kuramochi ovarian cancer cell line; experiment: growth inhibition, synergy studies; format: cell-based; details: read-out: IC50 (Mean ± SD)
[13] = test system: OVCAR4 ovarian cancer cell line; experiment: growth inhibition, synergy studies; format: cell-based; details: Homo sapiens, OVCAR-4, read-out: IC50 (Mean ± SD)
[14] = test system: OVSAHO ovarian cancer cell line; experiment: growth inhibition, synergy studies; format: cell-based; details: for IC50: Homo sapiens, OVSAHO, read-out: IC50 (Mean ± SD)
[15] = test system: SKOV3 ovarian cancer cell line; experiment: growth inhibition, synergy studies; format: cell-based; details: for IC50: Homo sapiens, SK-OV-3, SKOV3, read-out: IC50 (Mean ± SD)
[16] = test system: SNU119 ovarian cancer cell line; experiment: growth inhibition, synergy studies; format: cell-based; details: read-out: IC50 (Mean ± SD)
[17] = test system: 9 ovarian cancer and 2 immortalized fallopian tube epithelial cell lines; experiment: growth inhibition, expanded panel, average over cell lines; format: cell-based; details: average over 11 cell lines
Text: The ^AveCI for compound 5 in SKOV3 cells was 0.2 indicating strong synergism.

[18] = cysteine binding assay using Ellman's reagent; format: physicochemical; details: 19 vs prodrug under similar conditions
Text: Without wishing to be bound by theory, it is believed that the α-methylene-γ-butyrolactone moiety on compound 19 is reactive toward biological nucleophiles such as glutathione and cysteine. To determine if secondary amine prodrug of compound 19 (Compound 19-AP1) results in improved stability, the reactivity of analog compound 19 and the prodrug compound 19-AP1 was compared in a cysteine binding assay using Ellman's reagent (FIG. 1B).

[19] = test system: A2780 ovarian cancer line; experiment: 72 h growth inhibition assay; format: cell-based; details: Homo sapiens, A2780, 72 h
Procedure: (§3) The cancer cell growth-inhibitory potential of amine-prodrugs (compounds 19-AP1 and 19-AP2) was evaluated. Compounds 19, 19-AP1 and 19-AP2 were screened in ovarian cancer lines (A2780, and OVSAHO) and immortalized fallopian tube epithelial cells (FT282E1) in a 72 h growth inhibition assay.

[20] = test system: FT282E1 immortalized fallopian tube epithelial cells; experiment: 72 h growth inhibition assay; format: cell-based; details: Epithelial cell; FT282E1, 72 h
Procedure: as §3

[21] = test system: OVSAHO ovarian cancer line; experiment: 72 h growth inhibition assay; format: cell-based; details: for IC50: Homo sapiens, 72 h
Procedure: as §3

[22] = 19F NMR kinetics of release of compound 19 from prodrug; format: physicochemical; details: release of 4-trifluoromethylpiperidine
Text: Next, to assess the kinetics of the release of the active compound 19 from the prodrug compound 19-AP1, the release of 4trifluoropiperidine from the prodrug compound 19-AP1 was monitored using ^19F-NMR spectroscopy following a reported method. (Woods, Mo, Bieberich, Alavanja, & Colby, 2011). […] This observation is consistent with previously reported studies with a prodrug of parthenolide.

[23] = Phase II and III clinical trials; cited from earlier work

In the case of `O=C(NC1CCNCC1)c1[nH]ncc1NC(=O)c1c(Cl)cccc1Cl` [AT7519, reference compound], the “potency rank among inhibitors treated as single agents” value [1] is reported as “AT7519>compound 19>parthenolide>palbociclib”.
With `C#CCN1C(=O)C2(CC(CN3CCC(C(F)(F)F)CC3)C(=O)O2)c2ccccc21` (stereo not drawn) [Compound 4, 1′-(prop-2-yn-1-yl)-4-((4-(trifluoromethyl)piperidin-1-yl)methyl)-3,4-dihydro-5H-spiro[furan2,3′-indoline]-2′,5-dione] the “covalent binding of IKKβ protein” value [2] was “observed” and the “covalent binding of RELA protein” value [3] was “observed”.
For `CC(=O)c1c(C)c2cnc(Nc3ccc(N4CCN(CC5CC6(OC5=O)C(=O)Nc5ccccc56)CC4)cn3)nc2n(C2CCCC2)c1=O` (stereo not drawn) [Compound 5, 4-((4-(6-((6-Acetyl-8-cyclopentyl-5-methyl-7-oxo-7,8-dihydropyrido[2,3-d]pyrimidin-2yl)amino)pyridin-3-yl)piperazin-1-yl)methyl)-3,4-dihydro-5H-spiro[furan-2,3′-indoline]-2′,5dione], the “fold less potent than palbociclib” value [4] was roughly 100 fold, the IC50 [4] was 0.046 ± 0.014 µM and the “fold less potent than palbociclib” value [5] was roughly 20 fold. The IC50 [5] was 0.009 ± 0.001 µM, the IC50 [6] was 14.6 ± 1.2 µM and the “average combination index (AveCI)” value ([6]; FT282E1 cells) was greater than 1.0. It also gave an IC50 [7] of 21.8 ± 1.5 µM, an IC50 [8] of 5.5 ± 0.5 µM and an IC50 [9] of 9.3 ± 0.9 µM. For the same compound, the IC50 [10] was 9.1 ± 0.9 µM, the IC50 [11] was 6.6 ± 1.3 µM and the IC50 [12] was greater than 40 µM. For the same compound, the IC50 [13] was 17.9 ± 1.4 µM, the IC50 [14] was 11.4 ± 0.9 µM and the “average combination index (AveCI)” value ([14]; OVSAHO cells, effective dose (ED) 50, 75 and 90) was 0.9. The IC50 [15] was 15.4 ± 1.5 µM, the “average combination index (AveCI)” value ([15]; SKOV3 cells) was 0.2 and the IC50 [16] was 8.8 ± 1.6 µM. For the same compound, the “fold less potent than the corresponding 1:1 mixture, on an average” value [17] was “equipotent” and the “fold more potent than the parthenolide-palbociclib compound 6” value [17] was roughly 3 fold.
With `CC(=O)c1c(C)c2cnc(Nc3ccc(N4CCN(CC5C(=O)O[C@@H]6[C@H]7O[C@]7(C)CCC/C=C(\C)C[C@@H]56)CC4)cn3)nc2n(C2CCCC2)c1=O` (stereo partly drawn) [Compound 6, 6-Acetyl-8-cyclopentyl-2-((5-(4-(((3R,3aS,9aR,10aS,10bS,E)-6,9a-dimethyl-2-oxo2,3,3a,4,5,8,9,9a,10a,10b-decahydrooxireno[2′,3′:9,10]cyclodeca[1,2-b]furan-3yl)methyl)piperazin-1-yl)pyridin-2-yl)amino)-5-methylpyrido[2,3-d]pyrimidin-7(8H)-one] the “fold less potent than palbociclib” value [4] was roughly 200 fold, the IC50 [4] was 0.085 ± 0.018 µM and the “fold less potent than palbociclib” value [5] was roughly 50 fold. For the same compound, the IC50 [5] was 0.018 ± 0.001 µM, the IC50 [6] was greater than 40 µM and the IC50 [7] was 25.6 ± 4.8 µM. For the same compound, the IC50 [8] was 25 ± 3.2 µM, the IC50 [9] was 32.6 ± 4.4 µM and the IC50 [10] was 38.4 ± 4.5 µM. It also gave an IC50 [11] of 31 ± 7 µM, an IC50 [12] greater than 40 µM and an IC50 [13] greater than 40 µM. It also gave an IC50 [14] of 31.1 ± 2.3 µM, an IC50 [15] greater than 40 µM and an IC50 [16] of 34.9 ± 6.3 µM. For the same compound, the “fold less potent than the corresponding 1:1 mixture, on an average” value [17] was roughly 7 fold.
For `O=C(NC1CCN(CC2CC3(OC2=O)C(=O)Nc2ccccc23)CC1)c1n[nH]cc1NC(=O)c1c(Cl)cccc1Cl` (stereo not drawn) [Compound 7, 4-(2,6-dichlorobenzamido)-N-(1-((2′,5-dioxo-4,5-dihydro-3H-spiro[furan-2,3′-indolin]-4yl)methyl)piperidin-4-yl)-1H-pyrazole-3-carboxamide], the “potency relative to the palbociclib based compounds (compounds 5 and 6)” value [1] was “more potent”.
In the case of `C/C1=C\CCC[C@@]2(C)O[C@@H]2[C@H]2OC(=O)C(CN3CCC(NC(=O)c4n[nH]cc4NC(=O)c4c(Cl)cccc4Cl)CC3)[C@@H]2C1` (stereo partly drawn) [Compound 8, 4-(2,6-dichlorobenzamido)-N-(1-(((3R,3aS,9aR,10aS,10bS,E)-6,9a-dimethyl-2-oxo2,3,3a,4,5,8,9,9a,10a,10b-decahydrooxireno[2′,3′:9,10]cyclodeca[1,2-b]furan-3yl)methyl)piperidin-4-yl)-1H-pyrazole-3-carboxamide], the “potency relative to the palbociclib based compounds (compounds 5 and 6)” value [1] is reported as “more potent”.
With `C=C1CC2(OC1=O)C(=O)Nc1ccccc12` (stereo not drawn) [Compound 19, 4-methylene-3,4-dihydro-5H-spiro(furan-2,3′-indoline)-2′,5-dione, reference compound] the “reactivity towards free cysteine” value [18] was “reacted rapidly”, the IC50 [19] was 2.15 ± 0.15 µM and the IC50 [20] was 5.28 ± 0.17 µM. The IC50 [21] was 20.4 ± 4.71 µM and the “potency rank among inhibitors treated as single agents” value [1] was “AT7519>compound 19>parthenolide>palbociclib”.
With `O=C1OC2(CC1CN1CCC(C(F)(F)F)CC1)C(=O)Nc1ccccc12` (stereo not drawn) [Compound 19-AP1, 4-((4-(trifluoromethyl)piperidin-1-yl)methyl)-3,4-dihydro-5H-spiro[furan-2,3′-indoline]-2′,5dione] the “reactivity towards free cysteine” value [18] was “more stable”, the “period over which the prodrug is hydrolyzed slowly to release the active compound 19” value [22] was 72 h and the IC50 [19] was 5.71 ± 0.24 µM. The IC50 [20] was 10.2 ± 0.56 µM, the “potency relative to parent compound 19” value [21] was “more potent” and the IC50 [21] was 10.8 ± 1.28 µM.
For `CN(C)CC1CC2(OC1=O)C(=O)Nc1ccccc12` (stereo not drawn) [Compound 19-AP2, 4-((dimethylamino)methyl)-3,4-dihydro-5H-spiro[furan-2,3′-indoline]-2′,5-dione], the IC50 [19] was 5.38 ± 0.33 µM, the IC50 [20] was 12 ± 1.26 µM and the “potency relative to parent compound 19” value [21] was “more potent”. The IC50 [21] was 9.81 ± 1.07 µM.
In the case of `COc1cccc2c1C(=O)c1c(O)c3c(c(O)c1C2=O)C[C@@](O)(/C(CO)=N/NC(=O)CCCCCN1C(=O)C=CC1=O)C[C@@H]3O[C@H]1C[C@H](N)[C@H](O)[C@H](C)O1` [INNO-206], the “cardiotoxicity profile compared with doxorubicin” value [23] is listed as “far superior”.
